From US12466827B2, “1,3,4-oxadiazole derivative compounds as histone deacetylase 6 inhibitor, and the pharmaceutical composition comprising the same” (CHONG KUN DANG PHARMACEUTICAL CORP., priority 2020, dated 2025)

Legend:
[1] = molecular target: T1, human recombinant HDAC1 (Homo sapiens, UniProt Q13547); assay: In vitro HDAC enzyme activity inhibition assay (HDAC1); format: biochemical; settings: Fluor de Lys-SIRT1 substrate 10 μM, 30° C., 60 minutes, fluorescence
T1 construct: purchased Enzo Life Sciences, Inc. BML-SE456
Procedure, shortened: (§1)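 Fluorimetric deacetylase kit: human recombinant HDAC1 or HDAC6 (0.3 μg) with 10 μM Fluor de Lys-SIRT1 substrate and 5-fold diluted compounds, 60 min at 30° C. Developer added for 30 min, fluorescence read at Ex 360/Em 460, IC50 calculated.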

[2] = molecular target: T2, human recombinant HDAC6 (Homo sapiens, UniProt Q9UBN7); assay: In vitro HDAC enzyme activity inhibition assay (HDAC6); format: biochemical; settings: for HDAC6 selectivity (fold): HDAC6 over HDAC1; for IC50: same protocol as the HDAC1 test, human recombinant HDAC6 (Calbiochem)
T2 construct: purchased Calbiochem Inc. 382180
T2 sequence (Q9UBN7 1-1215): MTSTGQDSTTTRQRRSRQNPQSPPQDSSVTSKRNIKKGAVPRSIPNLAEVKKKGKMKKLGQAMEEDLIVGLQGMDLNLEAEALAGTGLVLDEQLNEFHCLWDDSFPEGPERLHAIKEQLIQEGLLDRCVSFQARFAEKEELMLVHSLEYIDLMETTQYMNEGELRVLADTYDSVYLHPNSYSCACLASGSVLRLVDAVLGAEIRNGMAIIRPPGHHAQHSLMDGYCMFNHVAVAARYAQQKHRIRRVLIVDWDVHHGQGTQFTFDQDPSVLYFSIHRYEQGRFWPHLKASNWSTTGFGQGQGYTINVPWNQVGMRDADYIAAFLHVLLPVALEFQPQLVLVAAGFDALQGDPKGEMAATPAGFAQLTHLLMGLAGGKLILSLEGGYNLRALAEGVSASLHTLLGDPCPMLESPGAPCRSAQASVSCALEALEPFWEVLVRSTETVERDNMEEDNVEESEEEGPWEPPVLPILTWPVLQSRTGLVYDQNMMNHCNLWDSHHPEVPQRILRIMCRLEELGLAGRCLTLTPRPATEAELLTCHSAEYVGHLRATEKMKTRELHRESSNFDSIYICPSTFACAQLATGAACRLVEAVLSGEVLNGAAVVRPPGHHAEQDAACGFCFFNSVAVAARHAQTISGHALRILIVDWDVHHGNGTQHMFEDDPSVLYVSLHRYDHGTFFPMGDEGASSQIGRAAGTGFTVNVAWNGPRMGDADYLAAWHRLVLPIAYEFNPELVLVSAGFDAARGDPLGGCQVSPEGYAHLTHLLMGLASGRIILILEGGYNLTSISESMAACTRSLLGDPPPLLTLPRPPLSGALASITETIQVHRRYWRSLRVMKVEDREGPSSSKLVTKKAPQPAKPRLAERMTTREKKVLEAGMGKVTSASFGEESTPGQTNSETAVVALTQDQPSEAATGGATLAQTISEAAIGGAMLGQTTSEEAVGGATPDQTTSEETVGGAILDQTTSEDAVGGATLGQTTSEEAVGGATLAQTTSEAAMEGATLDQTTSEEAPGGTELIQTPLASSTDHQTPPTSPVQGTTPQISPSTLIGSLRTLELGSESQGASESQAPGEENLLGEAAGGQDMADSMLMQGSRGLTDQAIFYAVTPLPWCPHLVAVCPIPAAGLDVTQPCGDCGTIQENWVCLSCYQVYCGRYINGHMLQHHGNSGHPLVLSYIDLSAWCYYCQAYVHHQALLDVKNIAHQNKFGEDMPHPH
Procedure, shortened: as §1

T1 sequence (Q13547 whole entry): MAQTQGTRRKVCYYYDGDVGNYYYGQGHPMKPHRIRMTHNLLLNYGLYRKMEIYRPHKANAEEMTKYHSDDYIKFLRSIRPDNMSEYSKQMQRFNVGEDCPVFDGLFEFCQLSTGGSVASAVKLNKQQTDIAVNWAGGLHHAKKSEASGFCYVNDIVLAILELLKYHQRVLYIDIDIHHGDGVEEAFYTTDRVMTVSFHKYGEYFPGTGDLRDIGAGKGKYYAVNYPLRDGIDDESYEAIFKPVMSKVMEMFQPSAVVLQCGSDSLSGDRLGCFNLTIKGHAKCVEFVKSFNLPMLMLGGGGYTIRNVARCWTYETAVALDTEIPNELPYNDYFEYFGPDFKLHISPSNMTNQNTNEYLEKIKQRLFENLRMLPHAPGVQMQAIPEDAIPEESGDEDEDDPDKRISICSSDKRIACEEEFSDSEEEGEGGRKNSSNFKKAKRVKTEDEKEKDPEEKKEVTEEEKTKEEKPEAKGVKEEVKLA

Structure (SMILES) | IC50 [1] [µM] | HDAC6 selectivity (fold) [2] [fold] | IC50 [2] [µM]
O=C(C1COC1)N1CCN(S(=O)(=O)N(Cc2cn3ccc(-c4nnc(C(F)F)o4)cc3n2)c2cccc(F)c2)CC1 [Compound 4310, N-((7-(5-(difluoromethyl)-1,3,4-oxadiazol-2-yl)imidazo[1,2-a]pyridin-2-yl)methyl)-N-(3-fluorophenyl)-4-(oxetane-3-carbonyl)piperazine-1-sulfonamide] | > 50 | 681 | 0.0734
O=C(N1CCN(S(=O)(=O)N(Cc2cn3ccc(-c4nnc(C(F)F)o4)cc3n2)c2cccc(F)c2)CC1)C(F)(F)F [Compound 4311, N-((7-(5-(difluoromethyl)-1,3,4-oxadiazol-2-yl)imidazo[1,2-a]pyridin-2-yl)methyl)-N-(3-fluorophenyl)-4-(2,2,2-trifluoroacetyl)piperazine-1-sulfonamide] | > 50 | 510 | 0.098
CS(=O)(=O)N1CCN(S(=O)(=O)N(Cc2cn3ccc(-c4nnc(C(F)F)o4)cc3n2)c2cccc(F)c2)CC1 [Compound 4312, N-((7-(5-(difluoromethyl)-1,3,4-oxadiazol-2-yl)imidazo[1,2-a]pyridin-2-yl)methyl)-N-(3-fluorophenyl)-4-(methylsulfonyl)piperazine-1-sulfonamide] | > 50 | 530 | 0.0943
COC(=O)N1CCN(S(=O)(=O)N(Cc2cn3ccc(-c4nnc(C(F)F)o4)cc3n2)c2cccc(F)c2)CC1 [Compound 4313, methyl 4-(N-((7-(5-(difluoromethyl)-1,3,4-oxadiazol-2-yl)imidazo[1,2-a]pyridin-2-yl)methyl)-N-(3-fluorophenyl)sulfamoyl)piperazine-1-carboxylate] | > 50 | 371 | 0.135
CN(C)C(=O)N1CCN(S(=O)(=O)N(Cc2cn3ccc(-c4nnc(C(F)F)o4)cc3n2)c2cccc(F)c2)CC1 [Compound 4314, 4—(N-((7-(5-(difluoromethyl)-1,3,4-oxadiazol-2-yl)imidazo[1,2-a]pyridin-2-yl)methyl)-N-(3-fluorophenyl)sulfamoyl)-N, N-dimethylpiperazine-1-carboxamide] | > 50 | 462 | 0.108
O=S(=O)(N1CCN(c2ncccn2)CC1)N(Cc1cn2ccc(-c3nnc(C(F)F)o3)cc2n1)c1cccc(F)c1 [Compound 4315, N-((7-(5-(difluoromethyl)-1,3,4-oxadiazol-2-yl)imidazo[1,2-a]pyridin-2-yl)methyl)-N-(3-fluorophenyl)-4-(pyrimidin-2-yl)piperazine-1-sulfonamide] | > 50 | 309 | 0.162
O=S(=O)(C1CCN(C2CC3(CCC3)C2)CC1)N(Cc1cn2ccc(-c3nnc(C(F)F)o3)cc2n1)c1cccc(F)c1 [Compound 4616, N-((7-(5-(difluoromethyl)-1,3,4-oxadiazol-2-yl)imidazo[1,2-a]pyridin-2-yl)methyl)-N-(3-fluorophenyl)-1-(spiro[3.3]heptan-2-yl)piperidine-4-sulfonamide] | > 50 | 243 | 0.205
O=S(=O)(C1CCN(C2CC3(COC3)C2)CC1)N(Cc1cn2ccc(-c3nnc(C(F)F)o3)cc2n1)c1cccc(F)c1 [Compound 4617, N-((7-(5-(difluoromethyl)-1,3,4-oxadiazol-2-yl)imidazo[1,2-a]pyridin-2-yl)methyl)-N-(3-fluorophenyl)-1-(2-oxaspiro[3.3]heptan-6-yl)piperidine-4-sulfonamide] | > 50 | 666 | 0.075
O=S(=O)(N1CCN(C2CC3(CCC3)C2)CC1)N(Cc1cn2ccc(-c3nnc(C(F)F)o3)cc2n1)c1cccc(F)c1 [Compound 4622, N-((7-(5-(difluoromethyl)-1,3,4-oxadiazol-2-yl)imidazo[1,2-a]pyridin-2-yl)methyl)-N-(3-fluorophenyl)-4-(spiro[3.3]heptan-2-yl)piperazine-1-sulfonamide] | > 50 | 274 | 0.182
O=S(=O)(N1CCN(C2CC3(COC3)C2)CC1)N(Cc1cn2ccc(-c3nnc(C(F)F)o3)cc2n1)c1cccc(F)c1 [Compound 4623, N-((7-(5-(difluoromethyl)-1,3,4-oxadiazol-2-yl)imidazo[1,2-a]pyridin-2-yl)methyl)-N-(3-fluorophenyl)-4-(2-oxaspiro[3.3]heptan-6-yl)piperazine-1-sulfonamide] | > 50 | 806 | 0.062
CN1CC2(C1)CN(S(=O)(=O)N(Cc1cn3ccc(-c4nnc(C(F)F)o4)cc3n1)c1ccccc1)C2 [Compound 4624, N-((7-(5-(difluoromethyl)-1,3,4-oxadiazol-2-yl)imidazo[1,2-a]pyridin-2-yl)methyl)-6-methyl-N-phenyl-2,6-diazaspiro[3.3]heptan-2-sulfonamide] | > 50 | 595 | 0.084
CC(C)(C)OC(=O)N1CCC(S(=O)(=O)N(Cc2cn3ccc(-c4nnc(C(F)(F)F)o4)cc3n2)c2cccc(F)c2)CC1 [Compound 6893, tert-butyl 4-(N-(3-fluorophenyl)-N-((7-(5-(trifluoromethyl)-1,3,4-oxadiazol-2-yl)imidazo[1,2-a]pyridin-2-yl)methyl)sulfamoyl)piperidine-1-carboxylate] | > 50 | 16 | 3.12
